Experimental data taken from patent publication US7351739B2, “Bioactive compounds and methods of uses thereof” (Wellgen, Inc., priority 2004, dated 2008).

Tests used:
JB6 C141 cells = assay: Anchorage-independent (soft agar) neoplastic cell transformation assay, EGF-exposed; assay type: cell-based, mouse
Procedure: (§1) Cell cultures: The JB6 mouse epidermal cell line Cl 41 or its stable AP-1 luciferase reporter plasmid stable transfectant was maintained with Eagles minimal essential medium (MEM), containing 5% fetal bovine serum (FBS), 2 mM L-glutamine and […] gentamicin or 50 IU/ml penicillin G and 50 μg/ml streptomycin, in an atmosphere of 95% air-5% CO2 at 37° C. Cells were seeded at a density of 5×10^4 cells/ml and cultured for 24 h. The cells were serum-starved in 0.1% FBS in MEM for 36 h to synchronize the cell cycle into G0 phase. The cells were treated with various concentrations of the test compound or distilled water (as a control) for 1 h, followed, by addition of MTS assay buffer for toxicity studies or 12-O-tetradecanoylphorbol-13-acetate (TPA) or epidermal growth factor (EGF at 10-20 ng/ml) to determine AP-1 activation. Some cells were used for cell transformation assays as described below. For human phenotype expression assays, human colon HCT116, human lung cancer HT460, human skin melanoma SK-MEL-28 or human ovarian SK-OV3 cells were cultured in their respective medium and harvested for soft agar assays.
(§2) Anchorage-independent transfornation assay: Inhibition of test compounds on TPA or EGF-induced cell transformation or human tumor phenotype expression was investigated under anchorage independent conditions. Samples of 1×10^4 cells were exposed to TPA (20 ng/ml) or EGF (20 ng/ml) with or without different concentrations of test compound inl ml 0.33% basal medium Eagle (BME) agar containing 10% FBS over 3.5 ml 0.5% BME agar medium containing 10% FBS. Gingerol was dissolved in 100% ethanol. Ethanol was used in the control group for comparison. The cultures were maintained in a 37° C., 5% CO2 incubator for 14-21 days and the cell colonies were scored by a computerized program integrated with a light microscope. Human tumor cells were treated in a similar manner but no EGF or TPA was needed.

[1] = test system: HCT116 colon cancer cells; assay: Soft agar colony formation / human tumor phenotype expression; assay type: cell-based
Procedure: as §1, §2

HT460 lung cancer cells = assay: as above; assay type: cell-based; conditions: for Effect against human lung cancer cells, colony formation (figure statement, in words): concentration not given
Procedure: as §1, §2

[2] = test system: SK-MEL-28 skin cancer cells; assay: as above; assay type: cell-based
Procedure: as §1, §2

[3] = test system: JB6 C141 mouse skin cells; assay: MTS toxicity (cell proliferation) assay; assay type: cell-based; conditions: 50 μM
Procedure: as §1, with “For human phenotype expression assays, human colon HCT116, human lung cancer HT460, human skin melanoma SK-MEL-28 or human ovarian SK-OV3 cells were cultured in their respective medium and harvested for soft agar assays.” left out
Cell Proliferation Assay (MTS Assay): Cell proliferation was analyzed using the CELLTITER 96® AQueous One Solution Cell Proliferation Assay (Promega, Madison, Wis.) following the instructions provided. […] Then the absorbance of a colored formazan product catalyzed by dehydrogenase enzymes in metabolically active cells was recorded at 492 nm with 690 nm as a background. Data were expressed as the percentage of absorbance of untreated control cells.

[4] = test system: SK-OV-3 ovarian cancer cells; assay: Soft agar colony formation / human tumor phenotype expression; assay type: cell-based
Procedure: as §1, §2

[5] = test system: skin cancer induced by UVA exposure in hairless mice; assay: UVA-induced skin tumors in SKh-1 hairless mice, topical treatment; assay type: in vivo; conditions: day 84, 30 micrograms per mouse on tumors, 5 days a week, day 21 to 53
Procedure: Twenty SKh-1 hairless mice were exposed to UVA to induce skin tumor formation. […] Rubescensin J was dissolved in DMSO and then brought up to volume in acetone. The two groups. of mice were treated with rubescensin J in acetone, and acetone alone, respectively. […] Five days a week, each mouse received a total of 30 micrograms applied directly on tumor(s) in a volume of 250 microliters. The compound was made fresh each day. Tumor numbers and sizes were monitored and recorded periodically.
Initial measurements were taken on day 1, 14 and 20, and the first treatment was applied on day 21. The experimental group of mice were treated with the compound 5 days a week until the compound was depleted on day 53. Measurement #1 through to #11 were made on day 14, 20, 24, 28, 32, 36, 39, 43, 51, 53, and 84. The numbers of tumor papillomas and the tumor volumes are expressed as a percentage of the number of papillomas and tumor volume on day 1.

[6] = Homo sapiens, 25 μM, read-out: % Inhibition: HT 460 Lung Cancer

C=C1[C@@H](O)[C@@]23C(CC[C@@H]1[C@H]2O)[C@]12CCCC(C)(C)C1[C@H](O)[C@]3(O)OC2=O (stereo partly drawn) [Rabdoternin A]
Inhibition of neoplastic transformation in JB6 cell (in words) (JB6 C141 cells; 25 μM): completely inhibits | Prevention of neoplastic cell transformation, EGF, soft agar (figure statement, in words) (JB6 C141 cells; 25 μM): prevented neoplastic cell transformation | inhibition at 25 µM (JB6 C141 cells; Mus musculus, 25 μM): 100% | Inhibition of HCT116 colon cancer cell growth (in words) ([1]; 25 μM): completely inhibited | inhibition at 25 µM ([1]; Homo sapiens, HCT-116, 25 μM): 100% | Decreasing colony formation, human colon cancer cells (figure statement, in words) ([1]; concentration not given): particularly effective | Inhibition of HT460 lung cancer cell growth (in words) (HT460 lung cancer cells; 25 μM): moderately inhibited | inhibition at 25 µM (HT460 lung cancer cells; [6]): 10% | Effect against human lung cancer cells, colony formation (figure statement, in words) (HT460 lung cancer cells): moderate inhibitory effect | Inhibition of SK-MEL-28 skin cancer cell growth (in words) ([2]; 15 μM): completely inhibits | inhibition at 25 µM ([2]; Homo sapiens, SK-MEL-28, 25 μM): 100% | Effect against human skin melanoma cells, colony formation (figure statement, in words) ([2]; concentration not given): particularly effective

CC1OC(OC2C(O)C(CO)OC(OCCc3ccc(OC(=O)/C=C/c4ccc(O)c(O)c4)c(O)c3)C2O)C(O)C(O)C1O (stereo not drawn) [Rubscendepside]
Toxicity evaluation with MTS assay (in words) [3]: no Rubscendepside toxicity | Prevention of neoplastic cell transformation, EGF, soft agar (figure statement, in words) (JB6 C141 cells; 25 μM): prevented neoplastic cell transformation | Inhibition of neoplastic transformation in JB6 cell (in words) (JB6 C141 cells; 50 μM): completely inhibits | % Inhibition: Neoplastic Transformation in JB6 Cells (JB6 C141 cells; 20-50 μM): 80-100 (20-50 μM) % | Inhibition of HCT116 colon cancer cell growth (in words) ([1]; 15 μM): significantly inhibits | inhibition at 15 µM ([1]; Homo sapiens, HCT-116, 15 μM): 60% | Decreasing colony formation, human colon cancer cells (figure statement, in words) ([1]; concentration not given): particularly effective | Inhibition of HT460 lung cancer cell growth (in words) (HT460 lung cancer cells; 25 μM): moderately inhibits | inhibition at 25 µM (HT460 lung cancer cells; [6]): 37% | Effect against human lung cancer cells, colony formation (figure statement, in words) (HT460 lung cancer cells): moderate inhibitory effect | Inhibition of SK-MEL-28 skin cancer cell growth (in words) ([2]; 25 μM): moderately inhibits | inhibition at 25 µM ([2]; Homo sapiens, SK-MEL-28, 25 μM): 36% | Effect against human skin melanoma cells, colony formation (figure statement, in words) ([2]; concentration not given): moderate inhibitory effect

CC1(C)CC[C@H](O)[C@]23CO[C@@](O)([C@@H](O)C12)[C@]12C(=O)[C@@]4(CO4)[C@H](CCC31)[C@H]2O (stereo partly drawn) [Rubescensin J, 1α, 6β, 7β, 14β-tetrohydroxy-7α,20-epoxy-ent-kaur-16,17-exo-epoxide-15-one]
Prevention of neoplastic cell transformation, EGF, soft agar (figure statement, in words) (JB6 C141 cells; 25 μM): prevented neoplastic cell transformation | Inhibition of neoplastic transformation in JB6 cell (in words) (JB6 C141 cells; 40 μM): completely inhibits | % Inhibition: Neoplastic Transformation in JB6 Cells (JB6 C141 cells; 20-40 μM): 83-100 (20-40 μM) % | Decreasing colony formation, human colon cancer cells (figure statement, in words) ([1]; 10 μM): particularly effective | Inhibition of HCT116 colon cancer cell growth (in words) ([1]; 20 μM): completely inhibits | inhibition at 20 µM ([1]; Homo sapiens, HCT-116, 20 μM): 100% | Inhibition of HT460 lung cancer cell growth (in words) (HT460 lung cancer cells; 20 μM): moderately inhibits | inhibition at 20 µM (HT460 lung cancer cells; Homo sapiens, 20 μM, read-out: % Inhibition: HT 460 Lung Cancer): 20% | Effect against human lung cancer cells, colony formation (figure statement, in words) (HT460 lung cancer cells): moderate inhibitory effect | Effect against human skin melanoma cells, colony formation (figure statement, in words) ([2]; 20 μM): particularly effective | Inhibition of SK-MEL-28 skin cancer cell growth (in words) ([2]; 20 μM): significantly inhibits | inhibition at 20 µM ([2]; Homo sapiens, SK-MEL-28, 20 μM): 50% | Inhibition of SK-OV-3 ovarian cancer cell growth (in words) ([4]; 20 μM): moderately inhibits | inhibition at 20 µM ([4]; Homo sapiens, SK-OV-3, 20 μM): 15% | Effect against human ovarian cancer cells, colony formation (figure statement, in words) ([4]; concentration not given): moderate inhibitory effect | Number of tumor papillomas as percentage of the number on day 1 ([5]; untreated group about 90%): ~50% | Tumor volume as percentage of the volume on day 1 ([5]; untreated group about 120%): about 60%

C=C1[C@@H](OC(C)=O)[C@]23[C@H](O)[C@H]1CC[C@H]2[C@]12CCCC(C)(C)[C@H]1[C@H](OC(C)=O)[C@]3(O)OC2 [Rabdoternin C]
Prevention of neoplastic cell transformation, EGF, soft agar (FIG. 21) (JB6 C141 cells; 10 μM): 50% | Inhibition of neoplastic transformation in JB6 cell (in words) (JB6 C141 cells; 100 μM): completely inhibits | % Inhibition: Neoplastic Transformation in JB6 Cells (JB6 C141 cells; text b465: 50% at 10 μM): 50% | % Inhibition: HCT116 Colon Cancer Cells ([1]; 100 μM): 68% | Inhibition of HCT116 colon cancer cell growth (in words) ([1]; 100 μM): significantly inhibited | Decreasing colony formation, human colon cancer cells (figure statement, in words) ([1]; concentration not given): particularly effective | % Inhibition: HT 460 Lung Cancer (HT460 lung cancer cells; 100 μM): 14% | Inhibition of HT460 lung cancer cell growth (in words) (HT460 lung cancer cells; 100 μM): moderately inhibited | Effect against human lung cancer cells, colony formation (figure statement, in words) (HT460 lung cancer cells): some inhibitory effect | % Inhibition: SK-MEL-28 Skin Cancer ([2]; 100 μM): 5-10% | Inhibition of SK-MEL-28 skin cancer cell growth (in words) ([2]; 100 μM): moderately inhibited | Effect against human skin melanoma cells, colony formation (figure statement, in words) ([2]; concentration not given): some inhibitory effect

Rubescensin M
Inhibition of neoplastic transformation in JB6 cell (in words) (JB6 C141 cells; 100 μM): almost completely inhibits | Prevention of neoplastic cell transformation, EGF, soft agar (figure statement, in words) (JB6 C141 cells; 100 μM): prevented neoplastic cell transformation | % Inhibition: Neoplastic Transformation in JB6 Cells (JB6 C141 cells; text b462: 100 μM): 90% | % Inhibition: HCT116 Colon Cancer Cells ([1]; 75 μM): 90% | Decreasing colony formation, human colon cancer cells (figure statement, in words) ([1]; concentration not given): particularly effective | % Inhibition: HT 460 Lung Cancer (HT460 lung cancer cells; 75 μM): 73% | Effect against human lung cancer cells, colony formation (figure statement, in words) (HT460 lung cancer cells): moderate inhibitory effect | % Inhibition: SK-MEL-28 Skin Cancer ([2]; 50 μM): 100% | Inhibition of SK-MEL-28 skin cancer cell growth (in words) ([2]; 50 μM): completely inhibited | Effect against human skin melanoma cells, colony formation (figure statement, in words) ([2]; concentration not given): particularly effective

C=C1[C@@H](O)[C@@]23C(CC[C@@H]1[C@H]2O)[C@@]12C(=O)O[C@@]3(O)[C@@H](O)C1C(C)(C)CC[C@@H]2O (stereo partly drawn) [Rabdoternin B]
Inhibition of neoplastic transformation in JB6 cell (in words) (JB6 C141 cells; 75 μM): completely inhibits | Prevention of neoplastic cell transformation, EGF, soft agar (figure statement, in words) (JB6 C141 cells; 75 μM): prevented neoplastic cell transformation | inhibition at 75 µM (JB6 C141 cells; Mus musculus, 75 μM): 100% | Inhibition of HCT116 colon cancer cell growth (in words) ([1]; 50 μM): completely inhibited | inhibition at 50 µM ([1]; Homo sapiens, HCT-116, 50 μM): 100% | Decreasing colony formation, human colon cancer cells (figure statement, in words) ([1]; concentration not given): particularly effective | inhibition at 35 µM (HT460 lung cancer cells; Homo sapiens, 35 μM, read-out: % Inhibition: HT 460 Lung Cancer): 0% | inhibition at 35 µM ([2]; Homo sapiens, SK-MEL-28, 35 μM): 0%
